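In this assay, cells in 96-well plates receive the compound at five concentrations for 48 hours. Endpoints are linearly interpolated between the surrounding concentrations. TGI marks complete inhibition of growth.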 Where a SMILES comes first, the peptide text is derived from it. [ ]: non-standard residue; d: D form. The star is where a group is joined. Octanoyl = CCCCCCCC(=O)*; Aib = CC(C)(N)C(=O)O; tBu = CC(C)(C)*
Assays:
Test in all cases: NCI tumour cell line growth inhibition, 48 h
[1] = tested on: SK-MEL-28 melanoma
[2] = tested on: NCI-H522 lung
[3] = tested on: NCI-H23 lung
[4] = tested on: EKVX NSCLC
[5] = tested on: SK-OV-3 ovarian
[6] = tested on: SNB-19 CNS
[7] = tested on: 786-0 renal
[8] = tested on: UACC-62 melanoma
[9] = tested on: UACC-257 melanoma
[10] = tested on: OVCAR-8 ovarian
[11] = tested on: MCF7 breast
[12] = tested on: A549 NSCLC
[13] = tested on: MALME-3M melanoma
[14] = tested on: UO-31 renal
[15] = tested on: SK-MEL-2 melanoma
[16] = tested on: RPMI-8226 leukemia
[17] = tested on: LOX IMVI melanoma
[18] = tested on: SK-MEL-5 melanoma

SMILES	TGI [1] [µM]	TGI [2] [µM]	TGI [3] [µM]	TGI [4] [µM]	TGI [5] [µM]	TGI [6] [µM]	TGI [7] [µM]	TGI [8] [µM]	TGI [9] [µM]	TGI [10] [µM]	TGI [11] [µM]	TGI [12] [µM]	TGI [13] [µM]	TGI [14] [µM]	TGI [15] [µM]	TGI [16] [µM]	TGI [17] [µM]	TGI [18] [µM]
Cc1n[nH]c(=O)n1/N=C/c1c[nH]c2ccccc12	> 100	> 100	> 100	> 100	> 100	> 100	> 100	> 100	> 100	> 100	> 100	> 100	> 100	> 100	> 100	> 100	–	–
CCOP(=O)(OCC)/C(C#N)=C/c1cccn1CC(C)C	> 100	> 100	> 100	> 100	> 100	> 100	> 100	> 100	> 100	> 100	> 100	> 100	> 100	> 100	> 100	–	> 100	> 100
FC(F)(Sc1ccccc1)c1nc2ccccc2o1	> 100	> 100	> 100	–	69.4	–	> 100	> 100	> 100	> 100	> 100	> 100	> 100	> 100	> 100	> 100	–	> 100
O=C(CCc1cccc(O)c1)NCCc1ccc(O)cc1	> 100	> 100	> 100	> 100	> 100	> 100	> 100	> 100	> 100	> 100	> 100	> 100	> 100	> 100	> 100	–	> 100	> 100
COC(=O)C(Cc1ccccc1)OC(=O)C(N)CC(=O)O (stereo not drawn)	> 100	> 100	> 100	> 100	> 100	> 100	> 100	> 100	> 100	> 100	> 100	> 100	> 100	> 100	> 100	> 100	–	> 100
COc1cc([C@@H]2c3[nH]c4ccccc4c3C(Nc3ccc([N+](=O)[O-])cc3)[C@H]3COC(=O)N23)cc(OC)c1O (stereo partly drawn)	0.704	1.97	1.51	17	2.31	0.698	0.665	1.17	11.6	0.86	0.624	0.95	1.31	3.22	> 72.7	–	0.297	0.663
COC(=O)CCn1cnc2c(SC)ncnc21	> 100	> 100	> 100	> 100	> 100	> 100	> 100	> 100	> 100	> 100	> 100	> 100	> 100	> 100	–	> 100	> 100	> 100
NC1=NNC2(C(N)=N1)c1ccccc1-c1ccccc12	> 10	> 10	> 10	> 10	> 10	> 10	> 10	> 10	> 10	> 10	> 10	> 10	> 10	> 10	–	> 10	> 10	> 10
CCOC(=O)CCC(NC(=O)c1ccc(OCc2nc3ccccc3n3cccc23)cc1)C(=O)OCC (stereo not drawn)	> 100	69.3	> 100	> 100	> 100	> 100	> 100	> 100	> 100	> 100	> 100	> 100	> 100	> 100	> 100	–	> 100	> 100
CCOP(=O)(C=C=C(C)C)OCC	> 100	> 100	> 100	> 100	> 100	> 100	> 100	> 100	> 100	> 100	> 100	> 100	> 100	–	> 100	–	> 100	> 100
CN(CCCCN(C)CCc1ccc(Cl)c(Cl)c1)CCCCN1CCCC1	1.06	2.32	3.41	3.54	6.05	5.23	2.55	3.42	3.06	6.25	2.84	3.35	3.46	0.96	3.12	–	1.66	3.19
S=C(S)N1CCN(c2ccc(Cl)c(Cl)c2)CC1	62.7	50.1	–	> 100	–	> 100	> 100	–	–	> 100	70.9	> 100	44.2	–	34.6	45.8	31.6	30.5
CCCCCCCC(=O)NC(C)(C)C(=O)NC(COC(C)(C)C)C(=O)NC(CC(C)C)C(=O)NC(C)(C)C(=O)NC(COC(C)(C)C)C(=O)NC(COC(C)(C)C)C(=O)NC(CC(C)C)C(=O)NC(C)(C)C(=O)NC(COC(C)(C)C)C(=O)NC(C(=O)NC(CC(C)C)C(=O)OC)C(C)CC (stereo not drawn) (Octanoyl-[Aib]S(tBu)L[Aib]S(tBu)S(tBu)L[Aib]S(tBu)IL-OMe; configuration not given here)	> 25	> 25	12.7	16.3	> 25	> 25	23.4	23.7	> 25	> 25	17	> 25	–	> 25	13.5	11.2	10.6	16.2
COc1ccc(/C=C/C(=O)N[C@@H]2C(=O)N3[C@@H]2SC(C)(C)[C@@H]3C(=O)O)cc1	> 100	> 100	> 100	> 100	> 100	> 100	> 100	> 100	> 100	> 100	> 100	> 100	–	> 100	> 100	> 100	> 100	> 100
CN(/N=C/C=N/N(C)C1=NCCCCN1)C1=NCCCCN1	> 100	> 100	> 100	> 100	> 100	> 100	> 100	> 100	> 100	> 100	> 100	> 100	> 100	> 100	–	–	> 100	> 100
O=C1CC2(CCNCC2)C(=O)N1N1CCCC1	–	> 100	> 100	> 100	> 100	> 100	> 100	> 100	> 100	> 100	> 100	> 100	> 100	> 100	–	> 100	> 100	> 100
CC(C)NCC(O)c1ccc(OCc2ccccc2)c(OCc2ccccc2)c1-c1ccccc1 (stereo not drawn)	–	3.16	–	32.3	3.16	4.07	3.25	2.72	3.54	3.17	3.22	3.21	3.16	7.82	4.18	–	13.8	2.5
ClC1=C(Cc2ccccc2)Cc2ccc3c(c21)CCC3	> 100	39.5	> 100	> 100	> 100	52	89.1	60.3	53.8	> 100	37.7	98.2	59.7	69.6	–	65.3	32.9	40.6
COc1ccccc1Cn1nc(OC)c2cc([N+](=O)[O-])ccc21	> 100	> 81.3	> 89.2	> 73.6	–	41.5	> 84.7	–	> 100	> 100	> 100	> 100	> 100	> 79.6	> 57.5	–	> 100	> 100
O=C(Cc1ccc(Cl)c(Cl)c1)N(CCc1ccc(Cl)c(Cl)c1)CCN1CCCC1	2.99	3.3	3.95	3.78	7.49	4.9	3	3.27	3.51	3.82	3.27	4.25	3.16	3.46	3.36	3.62	–	3.41
N#CC(c1cc2c(cc1Br)OCO2)N1CCOCC1 (stereo not drawn)	> 100	> 100	> 100	> 100	> 100	> 100	> 100	> 100	> 100	> 100	> 100	> 100	> 100	> 100	–	> 100	> 100	> 100

From PubChem BioAssay (NCI)
